How the values were obtained:
[1] = biological target: USP34 (Homo sapiens, UniProt Q70CQ2); experiment: Biochemical DUB selectivity profiling assay: USP34; conditions: Ub-Rho110 400 nM, buffer B; read-out: Biochemical IC50 range, USP34
Description: (§1) DUB Assay Substrate Substrate
(§2) Buffer Concentration (nM) […]
(§3) Sepharose® 4B resin (GE Healthcare).
(§4) 10 kDa molecular weight cut-off (MWCO)).
(§5) Fractions containing protein
(§6) Protein concentration was […]
(§7) reaction volume of 21 μL. […]
(§8) compound (final concentration 5 nM).
(§9) IC50 values were determined
(§10) Biochemical DUB selectivity profiling assays […]
(§11) in 40 µL total reaction volume.

[2] = biological target: T1, FLAG-UCHL1 (Homo sapiens, UniProt P09936); experiment: HTRF in-cell UCHL1 activity assay with HA-Ub-VME in Cal51 cells; assay type: cell-based; conditions: Cal51 cells stably expressing FLAG-UCHL1, 1 h, HA-Ub-VME 100 nM
T1 construct: expressed in transfected cells
T1 sequence (P09936 1-223): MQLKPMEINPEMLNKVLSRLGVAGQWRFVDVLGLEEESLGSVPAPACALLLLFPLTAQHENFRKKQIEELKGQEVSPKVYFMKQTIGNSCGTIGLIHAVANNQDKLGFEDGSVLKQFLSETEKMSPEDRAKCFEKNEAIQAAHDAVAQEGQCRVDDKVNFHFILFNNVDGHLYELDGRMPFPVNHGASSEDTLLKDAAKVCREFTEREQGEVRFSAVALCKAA

[3] = biological target: T2, Cezanne1 (Homo sapiens, UniProt Q6GQQ9); experiment: Biochemical DUB selectivity profiling assay: Cezanne1; conditions: Ub-Lys-TAMRA 50 nM, buffer B; read-out: Biochemical IC50 range, Cezanne1
T2 sequence (Q6GQQ9 1-843): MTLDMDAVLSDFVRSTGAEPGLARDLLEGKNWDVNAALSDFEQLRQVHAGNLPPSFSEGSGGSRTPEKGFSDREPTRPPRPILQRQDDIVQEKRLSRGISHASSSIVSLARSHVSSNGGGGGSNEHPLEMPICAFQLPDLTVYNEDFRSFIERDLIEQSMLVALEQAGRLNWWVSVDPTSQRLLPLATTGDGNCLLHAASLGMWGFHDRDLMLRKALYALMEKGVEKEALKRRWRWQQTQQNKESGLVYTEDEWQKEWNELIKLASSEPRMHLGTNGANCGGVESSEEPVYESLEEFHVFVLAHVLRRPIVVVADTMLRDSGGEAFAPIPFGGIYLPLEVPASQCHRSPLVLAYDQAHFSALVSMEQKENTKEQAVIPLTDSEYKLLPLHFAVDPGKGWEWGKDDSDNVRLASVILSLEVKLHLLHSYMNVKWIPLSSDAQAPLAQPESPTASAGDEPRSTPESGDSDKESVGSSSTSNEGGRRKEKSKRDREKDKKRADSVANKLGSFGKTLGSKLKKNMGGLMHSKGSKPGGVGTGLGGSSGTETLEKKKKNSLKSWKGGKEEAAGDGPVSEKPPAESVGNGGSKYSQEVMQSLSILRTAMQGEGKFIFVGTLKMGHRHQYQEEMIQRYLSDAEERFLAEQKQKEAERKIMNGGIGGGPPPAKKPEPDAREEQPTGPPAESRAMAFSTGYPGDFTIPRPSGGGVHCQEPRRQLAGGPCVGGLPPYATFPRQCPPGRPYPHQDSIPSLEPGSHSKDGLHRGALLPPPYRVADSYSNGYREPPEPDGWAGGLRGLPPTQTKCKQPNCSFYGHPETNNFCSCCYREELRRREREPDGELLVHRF
Description: as §1, §2, §3, §4, §5, §6, §7, §8, §9, §10, §11

[4] = biological target: T3, USP35 (Homo sapiens, UniProt Q9P2H5); experiment: Biochemical DUB selectivity profiling assay: USP35; conditions: Ub-Lys-TAMRA 50 nM, buffer B; read-out: Biochemical IC50 range, USP35
T3 sequence (Q9P2H5 1-1018): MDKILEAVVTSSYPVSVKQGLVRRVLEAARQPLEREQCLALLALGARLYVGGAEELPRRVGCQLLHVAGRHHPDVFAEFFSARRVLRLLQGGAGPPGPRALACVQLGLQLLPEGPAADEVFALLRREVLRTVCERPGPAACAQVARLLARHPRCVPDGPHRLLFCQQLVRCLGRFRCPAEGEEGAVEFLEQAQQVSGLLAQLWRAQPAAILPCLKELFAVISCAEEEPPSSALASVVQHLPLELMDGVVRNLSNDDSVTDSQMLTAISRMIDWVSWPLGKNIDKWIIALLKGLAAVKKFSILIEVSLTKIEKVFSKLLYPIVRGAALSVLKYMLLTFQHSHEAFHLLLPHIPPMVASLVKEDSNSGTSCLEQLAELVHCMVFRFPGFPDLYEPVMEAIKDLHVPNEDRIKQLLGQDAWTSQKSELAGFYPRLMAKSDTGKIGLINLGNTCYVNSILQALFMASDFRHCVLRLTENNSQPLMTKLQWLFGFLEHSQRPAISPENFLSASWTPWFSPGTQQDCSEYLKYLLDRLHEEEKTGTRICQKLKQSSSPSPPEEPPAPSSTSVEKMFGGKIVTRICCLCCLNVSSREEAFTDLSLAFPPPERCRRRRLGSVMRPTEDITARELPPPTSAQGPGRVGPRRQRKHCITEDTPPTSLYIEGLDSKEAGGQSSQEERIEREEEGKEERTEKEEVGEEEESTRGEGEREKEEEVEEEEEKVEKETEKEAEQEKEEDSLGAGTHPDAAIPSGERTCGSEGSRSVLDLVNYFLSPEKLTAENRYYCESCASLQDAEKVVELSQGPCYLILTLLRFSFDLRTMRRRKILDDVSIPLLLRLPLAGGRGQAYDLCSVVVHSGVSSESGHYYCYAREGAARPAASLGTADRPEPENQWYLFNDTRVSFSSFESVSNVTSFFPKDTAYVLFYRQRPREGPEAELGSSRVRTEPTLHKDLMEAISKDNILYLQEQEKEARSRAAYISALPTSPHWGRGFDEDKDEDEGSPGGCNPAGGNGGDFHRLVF
Description: as §1, §2, §3, §4, §5, §6, §7, §8, §9, §10, §11

Chain of USP34 (Q70CQ2 whole entry): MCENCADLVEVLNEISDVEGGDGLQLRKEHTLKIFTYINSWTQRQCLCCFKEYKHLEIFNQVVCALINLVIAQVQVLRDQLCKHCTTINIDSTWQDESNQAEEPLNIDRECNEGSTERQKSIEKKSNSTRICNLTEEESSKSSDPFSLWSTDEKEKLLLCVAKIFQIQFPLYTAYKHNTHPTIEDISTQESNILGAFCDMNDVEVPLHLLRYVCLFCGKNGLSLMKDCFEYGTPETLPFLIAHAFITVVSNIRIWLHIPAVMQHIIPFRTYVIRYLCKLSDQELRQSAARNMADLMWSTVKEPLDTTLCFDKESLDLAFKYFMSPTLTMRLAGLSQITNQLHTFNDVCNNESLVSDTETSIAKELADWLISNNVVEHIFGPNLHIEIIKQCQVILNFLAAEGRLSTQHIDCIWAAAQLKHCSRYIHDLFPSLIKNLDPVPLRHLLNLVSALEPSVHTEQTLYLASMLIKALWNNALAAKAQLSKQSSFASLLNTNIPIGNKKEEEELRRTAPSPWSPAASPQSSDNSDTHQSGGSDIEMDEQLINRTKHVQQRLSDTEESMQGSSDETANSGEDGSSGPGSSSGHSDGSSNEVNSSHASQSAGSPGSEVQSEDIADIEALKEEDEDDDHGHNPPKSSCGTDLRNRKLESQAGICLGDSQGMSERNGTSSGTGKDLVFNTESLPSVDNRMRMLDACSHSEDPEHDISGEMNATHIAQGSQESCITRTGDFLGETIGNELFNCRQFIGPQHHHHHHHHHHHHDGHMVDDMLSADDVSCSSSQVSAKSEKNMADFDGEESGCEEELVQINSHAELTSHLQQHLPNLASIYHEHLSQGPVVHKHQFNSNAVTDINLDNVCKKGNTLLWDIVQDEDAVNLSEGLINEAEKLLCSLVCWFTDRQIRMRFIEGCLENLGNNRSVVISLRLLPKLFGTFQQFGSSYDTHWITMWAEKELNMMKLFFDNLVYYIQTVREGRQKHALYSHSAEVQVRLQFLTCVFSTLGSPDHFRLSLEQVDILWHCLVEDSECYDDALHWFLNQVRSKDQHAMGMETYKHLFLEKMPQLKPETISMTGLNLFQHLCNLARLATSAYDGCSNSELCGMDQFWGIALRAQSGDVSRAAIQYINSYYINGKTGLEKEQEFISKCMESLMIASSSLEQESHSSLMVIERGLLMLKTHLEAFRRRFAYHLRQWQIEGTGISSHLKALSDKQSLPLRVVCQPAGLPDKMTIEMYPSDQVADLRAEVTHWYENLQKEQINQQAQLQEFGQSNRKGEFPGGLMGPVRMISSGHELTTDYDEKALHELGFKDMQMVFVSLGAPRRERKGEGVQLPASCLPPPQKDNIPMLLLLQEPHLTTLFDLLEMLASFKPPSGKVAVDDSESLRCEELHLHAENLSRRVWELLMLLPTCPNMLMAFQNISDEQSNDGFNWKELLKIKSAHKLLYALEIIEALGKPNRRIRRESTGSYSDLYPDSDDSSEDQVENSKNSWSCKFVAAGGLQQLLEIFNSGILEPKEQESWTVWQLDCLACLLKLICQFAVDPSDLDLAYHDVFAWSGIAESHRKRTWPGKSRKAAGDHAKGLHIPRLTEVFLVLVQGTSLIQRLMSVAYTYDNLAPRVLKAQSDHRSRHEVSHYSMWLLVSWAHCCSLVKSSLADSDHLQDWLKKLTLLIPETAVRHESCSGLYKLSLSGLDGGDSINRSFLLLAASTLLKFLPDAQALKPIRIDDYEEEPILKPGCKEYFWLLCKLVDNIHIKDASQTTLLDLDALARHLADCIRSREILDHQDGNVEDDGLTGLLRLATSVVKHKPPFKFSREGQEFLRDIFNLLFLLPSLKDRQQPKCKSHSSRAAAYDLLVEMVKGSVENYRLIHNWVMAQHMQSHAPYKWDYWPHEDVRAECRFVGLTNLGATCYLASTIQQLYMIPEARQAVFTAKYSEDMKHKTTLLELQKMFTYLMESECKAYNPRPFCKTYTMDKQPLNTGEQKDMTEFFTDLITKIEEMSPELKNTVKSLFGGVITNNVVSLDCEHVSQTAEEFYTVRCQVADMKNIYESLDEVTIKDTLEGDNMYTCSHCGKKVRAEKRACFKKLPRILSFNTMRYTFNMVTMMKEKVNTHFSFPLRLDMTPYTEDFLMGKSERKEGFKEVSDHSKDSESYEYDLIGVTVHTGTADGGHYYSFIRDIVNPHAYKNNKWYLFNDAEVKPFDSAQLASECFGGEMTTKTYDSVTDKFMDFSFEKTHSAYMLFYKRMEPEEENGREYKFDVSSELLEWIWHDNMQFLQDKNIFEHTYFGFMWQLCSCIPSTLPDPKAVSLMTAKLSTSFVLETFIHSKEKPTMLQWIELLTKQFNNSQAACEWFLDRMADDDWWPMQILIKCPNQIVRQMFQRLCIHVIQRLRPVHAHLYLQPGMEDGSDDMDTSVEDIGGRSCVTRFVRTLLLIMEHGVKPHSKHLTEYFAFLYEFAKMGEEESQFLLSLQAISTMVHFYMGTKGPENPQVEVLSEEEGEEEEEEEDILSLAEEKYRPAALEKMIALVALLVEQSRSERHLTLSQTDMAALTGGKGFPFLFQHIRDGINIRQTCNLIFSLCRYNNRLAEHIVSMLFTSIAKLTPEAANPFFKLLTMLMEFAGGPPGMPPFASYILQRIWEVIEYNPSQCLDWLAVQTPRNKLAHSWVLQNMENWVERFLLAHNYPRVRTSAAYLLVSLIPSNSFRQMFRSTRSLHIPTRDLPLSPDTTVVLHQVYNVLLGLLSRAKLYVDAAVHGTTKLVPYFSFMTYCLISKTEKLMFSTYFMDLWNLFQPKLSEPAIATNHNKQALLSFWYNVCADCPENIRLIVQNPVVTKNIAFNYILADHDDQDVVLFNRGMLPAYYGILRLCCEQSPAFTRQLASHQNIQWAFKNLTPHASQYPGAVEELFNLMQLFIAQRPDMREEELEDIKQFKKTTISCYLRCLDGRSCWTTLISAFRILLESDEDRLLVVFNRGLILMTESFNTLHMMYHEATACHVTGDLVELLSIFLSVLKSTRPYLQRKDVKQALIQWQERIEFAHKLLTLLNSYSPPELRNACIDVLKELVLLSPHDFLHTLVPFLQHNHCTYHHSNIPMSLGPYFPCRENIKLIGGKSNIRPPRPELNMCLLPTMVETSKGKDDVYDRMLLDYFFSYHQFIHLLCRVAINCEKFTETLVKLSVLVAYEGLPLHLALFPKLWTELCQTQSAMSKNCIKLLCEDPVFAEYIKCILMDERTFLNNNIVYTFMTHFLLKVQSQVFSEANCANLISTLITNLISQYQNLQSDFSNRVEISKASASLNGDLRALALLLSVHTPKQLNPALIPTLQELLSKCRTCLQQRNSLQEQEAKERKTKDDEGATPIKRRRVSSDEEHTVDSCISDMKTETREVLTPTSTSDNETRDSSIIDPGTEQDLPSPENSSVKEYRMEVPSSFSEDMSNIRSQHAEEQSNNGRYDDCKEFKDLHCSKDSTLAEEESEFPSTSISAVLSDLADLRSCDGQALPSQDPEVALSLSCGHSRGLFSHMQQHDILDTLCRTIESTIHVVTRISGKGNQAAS

| IC50 [1] | IC50 [2] | IC50 [3] | IC50 [4] | SMILES |
| --- | --- | --- | --- | --- |
| 1 to 10 µM | 0.82 µM | > 10 µM | > 10 µM | N#CN1CCC[C@H]1C(=O)N1CCc2c(-c3c[nH]c4ncccc34)cccc21 [Compound 1] |
| 1 to 10 µM | 0.11 µM | > 10 µM | > 10 µM | C#Cc1cnc2[nH]cc(-c3cccc4c3CCN4C(=O)[C@@H]3CCCN3C#N)c2c1 [Compound 2] |
| > 10 µM | 23 µM | > 10 µM | > 10 µM | N#CN1CCC[C@@H]1C(=O)N1CCc2c(-c3c[nH]c4ncccc34)cccc21 [Compound 3] |

| SMILES | IC50 [1] | IC50 [2] | IC50 [3] | IC50 [4] |
| --- | --- | --- | --- | --- |
| CC(=O)O/N=C1\C(=O)N(Cc2cc(Cl)ccc2Cl)c2ccc(Cl)cc21 [LDN-57444, reference compound] | > 10 µM |  | > 10 µM | > 10 µM |

Reference: PMC7366380, “Discovery of a Potent and Selective Covalent Inhibitor and Activity-Based Probe for the Deubiquitylating Enzyme UCHL1, with Antifibrotic Activity” (Journal of the American Chemical Society, 2020)
